From ChEMBL document CHEMBL1201862, “PubChem BioAssay data set” (2004)
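Interpolation was linear, between the two tested concentrations surrounding the appropriate level; five concentrations were tested over 48 hours in 96-well plates. The concentration for 50% growth inhibition is given as GI50.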 Active and inactive are the calls of the source. Rule as the data show it: active = GI50 up to about 1.1 µM and inactive = higher.

Tests used:
Assay in all cases: NCI anticancer screen, dose series, 48 h
[1] = tested on: 786-0
[2] = tested on: A498
[3] = tested on: A549
[4] = tested on: ACHN
[5] = tested on: BT-549
[6] = tested on: CAKI-1
[7] = tested on: CCRF-CEM
[8] = tested on: COLO 205
[9] = tested on: DU-145
[10] = tested on: EKVX
[11] = tested on: HCC 2998
[12] = tested on: HCT-116
[13] = tested on: HCT-15
[14] = tested on: HOP-62
[15] = tested on: HOP-92
[16] = tested on: HT-29
[17] = tested on: Hs-578T
[18] = tested on: IGROV-1
[19] = tested on: K562
[20] = tested on: KM12
[21] = tested on: LOX IMVI
[22] = tested on: M14
[23] = tested on: MCF7
[24] = tested on: MDA-MB-231
[25] = tested on: MDA-MB-435
[26] = tested on: MDA-N
[27] = tested on: MOLT-4
[28] = tested on: Malme-3M
[29] = tested on: NCI-H23
[30] = tested on: NCI-H460
[31] = tested on: NCI-H522
[32] = tested on: NCI/ADR-RES
[33] = tested on: OVCAR-3
[34] = tested on: OVCAR-4
[35] = tested on: OVCAR-5
[36] = tested on: OVCAR-8
[37] = tested on: PC-3
[38] = tested on: RPMI-8226
[39] = tested on: RXF 393
[40] = tested on: SF-268
[41] = tested on: SF-295
[42] = tested on: SF-539
[43] = tested on: SK-MEL-28
[44] = tested on: SK-MEL-5
[45] = tested on: SK-OV-3
[46] = tested on: SN12C
[47] = tested on: SNB-19
[48] = tested on: SW-620
[49] = tested on: T47D
[50] = tested on: TK-10
[51] = tested on: U-251
[52] = tested on: UACC-257
[53] = tested on: UACC-62
[54] = tested on: HL-60
[55] = tested on: NCI-H226
[56] = tested on: SK-MEL-2
[57] = tested on: UO-31
[58] = tested on: SNB-75

Measured: GI50

CCCCCCCCCCOc1ccc(/N=N/c2nnc(-c3ccc(OCCCCC)cc3)s2)cc1
> 100 µM: [13]
inactive: [1] > 100 µM | [2] 49.4 µM | [3] > 100 µM | [4] 93.5 µM | [5] > 100 µM | [6] > 100 µM | [7] > 100 µM | [8] > 100 µM | [9] > 100 µM | [10] > 100 µM | [11] > 100 µM | [12] > 100 µM | [14] > 100 µM | [15] > 100 µM | [16] > 100 µM | [17] > 100 µM | [18] > 100 µM | [19] > 100 µM | [20] 62.4 µM | [21] > 100 µM | [22] > 100 µM | [23] 39.2 µM | [24] > 100 µM | [25] 34.5 µM | [26] > 100 µM | [27] > 100 µM | [28] > 100 µM | [29] > 100 µM | [30] > 100 µM | [31] > 100 µM | [32] > 100 µM | [33] 97.3 µM | [34] > 100 µM | [35] > 100 µM | [36] > 100 µM | [37] > 100 µM | [38] > 100 µM | [39] 65 µM | [40] > 100 µM | [41] 62.5 µM | [42] > 100 µM | [43] > 100 µM | [44] > 100 µM | [45] > 100 µM | [46] > 100 µM | [47] > 100 µM | [48] > 100 µM | [49] > 100 µM | [50] > 100 µM | [51] > 100 µM | [52] 49.9 µM | [53] 48 µM

Cc1ccc2c(=O)c(-c3nnc(N)s3)c[nH]c2n1
inactive: [1] 55.2 µM | [2] > 100 µM | [3] > 100 µM | [4] > 100 µM | [5] > 100 µM | [6] > 100 µM | [7] > 100 µM | [8] > 100 µM | [9] > 100 µM | [10] > 100 µM | [12] > 100 µM | [54] > 100 µM | [14] 18.6 µM | [16] > 100 µM | [17] > 100 µM | [18] > 100 µM | [19] > 100 µM | [20] > 100 µM | [21] > 100 µM | [22] > 100 µM | [23] > 100 µM | [24] > 100 µM | [25] > 100 µM | [26] > 100 µM | [27] > 100 µM | [28] > 100 µM | [55] 71.4 µM | [29] > 100 µM | [30] > 100 µM | [31] > 100 µM | [32] > 100 µM | [33] > 100 µM | [34] > 100 µM | [35] > 100 µM | [36] 42.2 µM | [37] > 100 µM | [38] > 100 µM | [39] 83.4 µM | [40] 36.3 µM | [41] > 100 µM | [43] > 100 µM | [56] > 100 µM | [44] > 100 µM | [46] > 100 µM | [47] > 100 µM | [48] > 100 µM | [49] > 100 µM | [50] > 100 µM | [51] 67.1 µM | [52] > 100 µM | [53] > 100 µM | [57] > 100 µM
> 100 µM: [13]

Nc1ccc(-c2nc3cc(F)ccc3s2)cc1CO
41 µM: [13]
inactive: [1] 30.9 µM | [3] > 69 µM | [4] 25.3 µM | [5] 21.2 µM | [6] > 56.5 µM | [7] 89.5 µM | [8] > 100 µM | [9] > 78.9 µM | [10] 17.8 µM | [12] 53.6 µM | [54] > 76.9 µM | [14] 17.5 µM | [15] 17.3 µM | [16] > 100 µM | [17] 34.4 µM | [19] > 100 µM | [20] > 100 µM | [21] 62.7 µM | [22] > 49.5 µM | [24] 22.9 µM | [25] > 100 µM | [26] > 100 µM | [27] > 100 µM | [28] > 72.3 µM | [30] 3.04 µM | [31] 41.7 µM | [32] 53.6 µM | [33] 36.2 µM | [34] > 100 µM | [35] 60.8 µM | [36] 28.6 µM | [37] 29.8 µM | [38] > 100 µM | [39] 15.5 µM | [40] 23.8 µM | [41] 14.4 µM | [42] 20.1 µM | [43] > 100 µM | [56] 23.9 µM | [44] > 96.8 µM | [45] 16.7 µM | [46] 32.7 µM | [47] 27.1 µM | [58] 19.2 µM | [48] > 100 µM | [51] 16.4 µM | [52] > 69.3 µM | [53] 19.4 µM | [57] 18.1 µM
active: [2] 0.0102 µM | [11] 0.313 µM | [18] < 0.01 µM | [23] < 0.01 µM | [55] 0.0219 µM | [29] 0.436 µM | [49] 0.0116 µM
